# Earlier results as cited in patent publication US10446758B2, “Hole transporting material, OLED display panel and electronic device comprising the same” (SHANGHAI TIANMA AM-OLED CO., LTD., priority 2016, dated 2019).
# Details: prior art material, background statement
structure (smiles),measurement,value
CC1(C)c2ccccc2-c2ccc(N(c3ccc4c(c3)C3(c5ccccc5-c5ccccc53)c3ccccc3-4)c3ccccc3-c3ccccc3)cc21,solubility (in words),good
